Holding throughout (assay type): cell-based
Assay [1] has as its system Propionibacterium acnes NCTC 737. The assay can be described thus: Minimum Inhibitory Concentration (MIC) assay, broth microdilution. As to conditions: P. acnes NCTC 737; Wilkins-Chalgren broth pH 6.0, anaerobic, 37° C., 72 hours. The method, then: (§1) The test micro-organism represented the cutaneous propionibacteria. […] The propionibacteria are clinically significant due to their involvement in acne. This is a very common, complex and multi-factorial skin disease in which P. acnes and other Propionibacterium spp. […] They are also opportunistic pathogens in compromised hosts.
(§2) The propionibacteria were cultured and maintained on Wilkins-Chalgren Anaerobe Medium (agar and broth) at pH 6.0; all cultures were incubated anaerobically at 37° C. for 72 hours.
This is a standard international method for quantitatively assessing the antimicrobial activity of a compound in a liquid medium. […] The culture media were as described above.
The wells were inoculated with a liquid suspension of freshly grown micro-organism and incubated under the conditions described above. After incubation, the microtitre plate was examined visually (with the aid of a light box) for cloudiness in each well, which would indicate microbial growth. The MIC value was recorded as the lowest concentration of test compound required to inhibit microbial growth, ie the lowest concentration for which the liquid in the well remained clear.
The assays included both negative (culture medium with no micro-organisms) and positive (culture medium plus diluting solvent plus micro-organism) controls.
(§3) MIC, MBC and DDA assays, as described above, were carried out using as the test compound sodium n-tetradecyl sulphate (STS, ex Sigma Aldrich, UK), dissolved in distilled water. All the experiments were conducted in triplicate. For the DDA experiments, 200 μg of the test compound was loaded onto each disc.
(§4) The MIC/MBC experiments were conducted in triplicate, with the exception of those for SDS and ADS which were conducted in duplicate. The DDAs were performed either in triplicate, in which case standard deviations are quoted in parentheses, or as a single replicate. For the DDA experiments, 200 μg of the test compound was loaded onto each disc.

For assay [2] the test system is unchanged. Description: Minimum Biocidal (Bactericidal) Concentration (MBC) assay. Particulars: P. acnes NCTC 737; for MBC: sub-culture on antibiotic-free agar after MIC assay. On the procedure:
as §1, §2
This assay, normally carried out after an MIC assay, determines the minimum concentration of a compound that is lethal to the micro-organism being tested.
These samples were then individually sub-cultured on antibiotic-free agar medium, under the incubation conditions described above. Following incubation they were examined visually for microbial growth.
as §3, §4

Assay [3] shares this test system. Description: Disc Diffusion Assay (DDA). As to conditions: P. acnes NCTC 737; 200 μg of test compound per disc. On the procedure: as §1, §2
This is an internationally recognised standard method for qualitatively assessing the antimicrobial activity of a compound.
(§5) A sterile paper disc was impregnated with a sample of the test compound in a suitable solvent and 30 minutes allowed for the solvents to evaporate (where possible). The disc was then placed on an agar plate onto which the test micro-organism had been inoculated. The plate was then incubated under the conditions described above, following which it was examined visually for signs of microbial growth. […] The diameter of this zone of ‘inhibition’ was measured using a ProtoCOL™ automated zone sizer (Synbiosis, Cambridge, UK).
as §3, §4

Assay [4] has the same test system. The assay can be described thus: Supplemented Disc Diffusion Assay (agar with salt or lipid). Particulars: P. acnes NCTC 737, 200 μg per disc; for DDA + salt: agar supplemented with sodium chloride (100 mM); for DDA + lipid: agar supplemented with triolein at 1% v/v. The method, then: as §1, §2, §5
Performance under these conditions can provide a more reliable indication of activity on topical application.
as §3, §4

Regarding `CCCCCCCCCCCCOS(=O)(=O)O.NC(CO)(CO)CO` [Trizma ® dodecyl sulphate, Trizma® (2-amino-2-(hydroxymethyl)-1,3-propanediol, alsoknownas ‘Tris’) dodecyl sulphate], the MIC (in general, the smallest concentration in the dilution series that meets the test's criterion for growth inhibition) in assay [1] amounted to 31.25 µg/mL. Moreover, in assay [2], the MIC/MBC ratio came out at 0.5 and the MBC (in general, the lowest tested concentration that kills the bacteria rather than only halting them) turned out to be 62.5 µg/mL. Further, in assay [3], the “DDA (diameter of zone of inhibition)” value was 0.00 mm. Also, in assay [4], the “DDA + salt” value stood at 0.00 mm and the “DDA + lipid” value is given as 0.00 mm.

Compound “triethanolamine lauryl sulphate [Triethanolamine dodecyl sulphate]” had a minimum inhibitory concentration (MIC) in assay [1] of 3.9 µg/mL. In assay [2], the MIC/MBC ratio came to 0.25 and the MBC was found to be 15.6 µg/mL. Also, the “DDA (diameter of zone of inhibition)” value in assay [3] came out at 30.19 mm. Moreover, in assay [4], the “DDA + salt” value turned out to be 28.33 mm and the “DDA + lipid” value amounted to 25.53 mm.
